Where a name gives a salt, the structure may show the parent alone.
Columns and labels:
[1] = Small scale dissolution test in FaSSIF (Test example 2); conditions: 37° C., paddle 50 rpm

SMILES	Dissolved concentration after 10 min	Dissolved concentration after 240 min	solubility of the Compound F6-20 hydrochloride salt crystal ([1]; 5 to 240 min, results in figures, stated in words)	initial solubility of the Compound F6-20 hydrochloride salt crystal ([1]; early phase, stated in words (FIG. 26))	solubility of the Compound F6-20 mesylate salt crystal ([1]; 5 to 240 min, versus Comparative example 3, stated in words)
CCc1cc2c(cc1N1CCC(N3CCOCC3)CC1)C(C)(C)c1[nH]c3cc(C#N)ccc3c1C2=O [9-ethyl-6,6-dimethyl-8-(4-morpholin-4-yl-piperidin-1-yl)-11-oxo-6,11-dihydro-5H-benzo[b]carbazole-3-carbonitrile monohydrochloride salt]	–	–	improved by addition of SLS and poly(sodium 4-styrene sulfonate)	improved by addition of polyoxyethylene (105) polyoxypropylene (5) glycol	–
CC1(C)c2cc(C3CCN(C4COC4)CC3)ccc2C(=O)c2c1[nH]c1cc(C#N)ccc21 [Comparative example 4, 6,6-Dimethyl-8-(1-oxetan-3-yl-piperidin-4-yl)-11-oxo-6,11-dihydro-5H-benzo[b]carbazole-3-carbonitrile]	8.3 ± 1.5 µg/mL	3.8 ± 2.6 µg/mL	–	–	–
CCc1cc2c(cc1N1CCN(C3COC3)CC1)C(C)(C)c1[nH]c3cc(C#N)ccc3c1C2=O [Comparative example 7, 9-Ethyl-6,6-dimethyl-8-(4-oxetan-3-yl-piperazin-1-yl)-11-oxo-6,11-dihydro-5H-benzo[b]carbazole-3-carbonitrile]	0.4 ± 0.2 µg/mL	0.4 ± 0.4 µg/mL	–	–	–
CCc1cc2c(cc1N1CCC(N3CCOCC3)CC1)C(C)(C)c1[nH]c3cc(C#N)ccc3c1C2=O [Compound F6-20 mesylate salt, 9-Ethyl-6,6-dimethyl-8-(4-morpholin-4-yl-piperidin-1-yl)-11-oxo-6,11-dihydro-5H-benzo[b]carbazole-3-carbonitrile]	–	–	–	–	improved in accordance with the additive amount of sodium lauryl sulfate

The next lines start with results.

Dissolved concentration after 10 min	Dissolved concentration after 240 min	SMILES	solubility of the Compound F6-20 hydrochloride salt crystal ([1]; 5 to 240 min, results in figures, stated in words)	initial solubility of the Compound F6-20 hydrochloride salt crystal ([1]; early phase, stated in words (FIG. 26))	solubility of the Compound F6-20 mesylate salt crystal ([1]; 5 to 240 min, versus Comparative example 3, stated in words)
4.4 ± 0.4 µg/mL	4.8 ± 0.3 µg/mL	CC1(C)c2cc(N3CCN(C4COC4)CC3)c(Br)cc2C(=O)c2c1[nH]c1cc(C#N)ccc21 [Comparative example 5, 9-Bromo-6,6-dimethyl-8-(4-oxetan-3-yl-piperazin-1-yl)-11-oxo-6,11-dihydro-5H-benzo[b]carbazole-3-carbonitrile]	–	–	–
18.2 ± 0.1 µg/mL	3.7 ± 0.5 µg/mL	CC1(C)c2cc(N3CCN(C4CC4)CC3)c(Br)cc2C(=O)c2c1[nH]c1cc(C#N)ccc21 [Comparative example 6, 9-Bromo-8-(4-cyclopropyl-piperazin-1-yl)-6,6-dimethyl-11-oxo-6,11-dihydro-5H-benzo[b]carbazole-3-carbonitrile]	–	–	–

Source: US20250114327A1, “COMPOSITION COMPRISING TETRACYCLIC COMPOUND” (CHUGAI SEIYAKU KABUSHIKI KAISHA, priority 2010, published 2025)
